Laboratory results taken from patent publication US20100062070A1, “Pulverzed crystals of olmesartan medoxomil” (DAIICHI SANKYO COMPANY, LIMITED, priority 2007, published 2010).

Key:
[1] = Measurement of dissolution ratio of pulverized olmesartan medoxomil (JP Dissolution Test Method 2, Paddle Method); format: physicochemical; settings: calculated from regression equation in FIG. 1, 30 minutes, JP-2, 200 paddle rpm
Procedure: According to the Method 2 of the Dissolution Test (Paddle Method) described in the 14th Revised Edition of the Japanese Pharmacopoeia, at 200 paddle revolutions per-minute using 900 mL of Japanese Pharmacopoeia Solution 2 (JP-2) for the test solution, 20 mg of milled olmesartan medoxomil prepared per 1 Bessel was added. The test solution was sampled at 30 minutes after the start of the testing, the sampled test solution was filtered through a membrane filter having a pore diameter of 0.45 μm, and the dissolution ratio of olmesartan medoximil was measured by spectrophotometer. Calculation of the dissolution ratio was conducted based on “absorbance of filtrate at 257 nm-absorbance of filtrate at 338 nm”.

[2] = Particle diameter measurement of milled product (HELOS&RODOS dry powder particle size analyzer); format: physicochemical; settings: evaluated by using FIG. 3
Procedure: The particle diameter of the milled olmesartan medoxomil obtained in Example (1) was measured under the following conditions. Apparatus: HELOS&RODOS dry powder particle size analyzer Lens: R3 Dispersive pressure: 1.5 bar Trigger condition: 2s-1000ms-k15-0.5% Feeder: VIBRI (feeding: 70%)

CCCc1nc(C(C)(C)O)c(C(=O)OCc2oc(=O)oc2C)n1Cc1ccc(-c2ccccc2-c2nnn[nH]2)cc1 [olmesartan medoxomil, (5-methyl-2-oxo-1,3-dioxolen-4-yl)methyl 4-(1-hydroxy-1-methylethyl)-2-propyl-1-[2′-(1H-tetrazol-5-yl)biphenyl-4-ylmethyl]imidazole-5-carboxylate]
dissolution ratio of the drug substance ([1]; desired dissolution ratio of the medicament (20 mg tablet) set to 60%): 42.93%
dissolution ratio of the drug substance ([1]; desired dissolution ratio of the medicament (20 mg tablet) set to 65%): 50.56%
dissolution ratio of the drug substance ([1]; desired dissolution ratio of the medicament (20 mg tablet) set to 70%): 58.18%
particle diameter at 99% cumulative volume ([2]; required for a medicament which elutes 60% or more): ≤ 156 μm
particle diameter at 99% cumulative volume ([2]; required for a medicament which elutes 65% or more): ≤ 137 μm
particle diameter at 99% cumulative volume ([2]; required for a medicament which elutes 70% or more): ≤ 119 μm
